Results on three molecules are retold here after patent EP0068239A2, “Sulfamoylbenzoic acid derivatives and pharmaceutical compositions comprising same” (MITSUI TOATSU CHEMICALS, Inc., priority 1981, dated 1983).

Molecules are shown by their SMILES.

For assay [1], the system named is rats with DOCA/saline-induced hypertension. Nature of the assay: Hypotensive activity in rats with DOCA/saline-induced hypertension (systolic pressure measured indirectly through the caudal artery). Type of assay: in vivo, male Wistar rats. The settings on record: 30 mg/kg orally once a day for 5 days, versus initial value; for Percent change of systolic pressure Day 1: measured 4 hour after administration on day 1; for Percent change of systolic pressure Day 3: measured 4 hour after administration on day 3; for Percent change of systolic pressure Day 5: measured 4 hour after administration on day 5. As to the method:
Evaluation Test 1 (Hypotensive activity in rats with DOCA/saline-induced hypertension]
Rats with DOCA/saline-induced hypertension were prepared according to the method described in an article by H. Selye, C.E. Hall and E.M. Rowly tCanadian Medical Association Journal, Vol. 49, p. 88, 1943). More specifically, 5-weeks-old male Wistar rats, weighing 100 to 120 g, were placed under anesthesia with ether and their left kidney was excised. Thereafter, they were allowed to take saline (a 1% aqueous solution of sodium chloride) instead of water. In addition, 10 mg/kg of deoxycorticosterone acetate was subcutaneously administered once a week. After 4-6 weeks, these rats developed hypertension.
Blood pressure was measured according to the method described in an article by M. Gerold and H. Tschirky (Arzneimittelforschung, Vol. 18, p. 1285, 1968). More specifically, using a Model 8002 or 8005 BP Recorder (W+W Electronic Co.), the systolic pressure of each rat was indirectly measured through the caudal artery. The rats were placed in a high-temperature environment (45±2°C) prior to every measurement. Among the rats (aged 15-17 weeks) with DOCA/saline-induced hypertension, only those showing a systolic pressure of 170 mmHg or above were used in groups of 3 or 4.
A compound to be tested was suspended in a 0.2% solution of carboxymethyl cellulose and administered orally to the rats in a dose of 30 mg/kg. This administration was performed once a day and continued for 5 days. Blood pressure measurements were made before the administration of the compound and 4 hour after the administration on days 1, 3, and 5.

For a further assay, the system named is anesthetized dogs. Kind of assay: Diuretic effect in anesthetized dogs (urine collection via ureter cannulae). Type of assay: in vivo, Adult mongrel dogs. The settings on record: for ED100: 10 min, dose at which urine collected for 10 minutes after administration is twice the amount collected for 10 minutes before; for diuretic effect: high dose of 2 mg/kg. The procedure:
Evaluation Test 2 [Diuretic effect in anesthetized dogs3
Adult mongrel dogs of either sex were used in this experiment. Each dog was anesthetized by intravenous administration of 30 mg/kg of pentobarbital sodium. Thereafter, a midline incision was made in the lower abdominal region and polyethylene cannulae for the collection of urine were inserted into the right and left ureters. In addition, a polyethylene cannula was inserted into the left femoral vein, through which 50 ml of physiological saline was administered. Thirty minutes after that, physiological saline was continuously infused at a rate of 1.5 ml/min. The experiment was started after the rate of urine excretion became constant. A compound to be tested was dissolved in dimethylformamide and administered intravenously by way of the right femoral vein, and blood pressure was surgically monitored by way of the right femoral artery.
The ED100 of the compound was defined as the dose at which the amount of urine collected for 10 minutes after the administration of the compound was equal to twice the amount of urine collected for 10 minutes before the administration.

Where [2] appears, read: Canis lupus familiaris, intravenous.

As to `CC1Cc2ccccc2N1NC(=O)c1cc(S(N)(=O)=O)c(Cl)cc1Cl` (stereo not shown) [Example 1, N-(2,4-dichloro-5-sulfamoylbenzamido)-2-methylindoline], in assay [1], the “Percent change of systolic pressure Day 1” value is -12%, the “Percent change of systolic pressure Day 3” value is given as -25% and the “Percent change of systolic pressure Day 5” value was -28%. In the assay with anesthetized dogs (setting [2]), the ED100 is > 2 mg/kg. In addition, in the assay on anesthetized dogs (intravenous), the diuretic effect entry was “little diuretic effect”.
With `CC1Cc2ccccc2N1NC(=O)c1ccc(Cl)c(S(N)(=O)=O)c1` (stereo not shown) [Indapamide, N-(3-sulfamoyl-4-chlorobenzamido)-2-methylindoline, reference compound], in assay [1], the “Percent change of systolic pressure Day 1” value was -13%, the “Percent change of systolic pressure Day 3” value is -20% and the “Percent change of systolic pressure Day 5” value is given as -22%. For the same molecule, in the assay on anesthetized dogs (setting [2]), the ED100 came to 0.2 mg/kg. Further, the minimal effective dose in the assay with anesthetized dogs (Canis lupus familiaris, intravenous, anesthetized dogs, read-out: dose at which the compound began to exert a diuretic effect) stood at 0.05 mg/kg. Further, the “increase of urine excretion (factor)” value in the assay on anesthetized dogs (intravenous dose of 0.2 mg/kg) was “approximately 2”.
As for `CC1Cc2ccccc2N1NC(=O)c1cc(S(N)(=O)=O)c(Cl)cc1Br` (stereo not shown) [Example 2, N-(2-bromo-4-chloro-5-sulfamoylbenzamido)-2-methylindoline], in assay [1], the “Percent change of systolic pressure Day 1” value is -12%, the “Percent change of systolic pressure Day 3” value is reported as -24% and the “Percent change of systolic pressure Day 5” value is -25%. Besides, the ED100 in the assay on anesthetized dogs (setting [2]) is > 2 mg/kg. Moreover, the diuretic effect result in the assay with anesthetized dogs (intravenous) is “little diuretic effect”.
